Results from US20150315188A1, “COMPOUNDS AND METHODS FOR TREATMENT OF HYPERTENSION” (MEDIVATION TECHNOLOGIES, INC., priority 2012, published 2015).

Experiments:
[1] = molecular target: T1, Human adrenergic α2A receptor (Homo sapiens, UniProt P08913); test: Radioligand binding, adrenergic α2A (Protocol Group A); parameters: expressed in transfected cells; host or cells: insect Sf9 cells; conditions: 0.1 μM compound, [3H]MK-912, read-out: percent inhibition of specific binding, Adrenergic α2A
T1 sequence (P08913 1-465): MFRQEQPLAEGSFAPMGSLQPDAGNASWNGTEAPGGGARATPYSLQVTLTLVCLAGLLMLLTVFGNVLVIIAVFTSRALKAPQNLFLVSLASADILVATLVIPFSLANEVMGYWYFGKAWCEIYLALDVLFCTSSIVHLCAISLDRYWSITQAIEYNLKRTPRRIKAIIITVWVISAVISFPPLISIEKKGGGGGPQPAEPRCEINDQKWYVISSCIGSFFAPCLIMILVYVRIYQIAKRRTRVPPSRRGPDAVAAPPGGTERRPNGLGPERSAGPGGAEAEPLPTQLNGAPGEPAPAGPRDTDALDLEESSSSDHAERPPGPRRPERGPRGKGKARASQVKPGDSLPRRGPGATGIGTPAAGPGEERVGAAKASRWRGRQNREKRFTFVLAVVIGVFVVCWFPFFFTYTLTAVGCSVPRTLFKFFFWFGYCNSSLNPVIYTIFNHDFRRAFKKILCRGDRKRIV
Procedure: To evaluate in radioligand binding assays the activity of compounds of the invention, human recombinant adrenergic α2A receptor expressed in insect Sf9 cells (Uhlen, S. et al, J. Pharmacol. Exp. Ther. 271:1558, 1994) in a modified Tris-HCl buffer (50 mM Tris-HCl, pH 7.4, 12.5 mM MgCl2, 2 mM EDTA) was used. Compounds of invention were incubated with 1 nM [^3H]MK-912 for 60 min at 25° C. MK912 is (2S-trans)-1,3,4,5′,6,6′,7,12b-octahydro-1′,3′-dimethyl-spiro[2H-benzofuro[2,3-a]quinolizine-2,4′(1′H)-pyrimidin]-2′(3′H)-one hydrochloride. Non-specific binding was estimated in the presence of 10 μM WB-4101 (2-(2,6-Dimethoxyphenoxyethyl)aminomethyl-1,4-benzodioxane hydrochloride). Receptor proteins were filtered and washed, the filters were then counted to determine [^3H]MK-912 specifically bound. Compounds were screened at 1 μM or lower, using 1% DMSO as vehicle. Compounds of the invention were tested in this biochemical assay and percent inhibition of specific binding was determined. Biochemical assay results are presented as the percent inhibition of specific binding in Table B1a.

[2] = molecular target: T2, Human adrenergic α2B receptor (Homo sapiens, UniProt P18089); test: Radioligand binding, adrenergic α2B (Protocol Group A); parameters: expressed in transfected cells; host or cells: CHO-K1; conditions: 0.03 μM compound, [3H]Rauwolscine, read-out: percent inhibition of specific binding, Adrenergic α2B
T2 sequence (P18089 1-450): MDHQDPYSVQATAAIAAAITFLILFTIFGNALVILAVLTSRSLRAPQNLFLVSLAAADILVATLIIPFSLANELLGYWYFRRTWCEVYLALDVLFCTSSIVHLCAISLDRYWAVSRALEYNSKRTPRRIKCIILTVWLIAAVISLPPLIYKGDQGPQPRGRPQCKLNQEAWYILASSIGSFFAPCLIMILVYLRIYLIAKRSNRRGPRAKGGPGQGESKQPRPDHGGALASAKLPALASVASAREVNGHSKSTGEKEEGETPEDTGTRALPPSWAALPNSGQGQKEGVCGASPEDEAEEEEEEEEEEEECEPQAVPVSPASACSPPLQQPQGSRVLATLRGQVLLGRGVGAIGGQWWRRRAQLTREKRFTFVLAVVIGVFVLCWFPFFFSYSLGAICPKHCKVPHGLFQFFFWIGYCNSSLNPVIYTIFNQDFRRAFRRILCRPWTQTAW
Procedure: To evaluate in radioligand binding assays the activity of compounds of the invention, human recombinant adrenergic α2B receptor expressed in Chinese hamster ovary (CHO) K1 cells (Uhlen, S. et al, Eur. J. Pharmacol. 343(1):93, 1998) in a modified Tris-HCl buffer (50 mM Tris-HCl, pH 7.4, 12.5 mM MgCl2, 1 mM EDTA, 0.2% BSA) was used. Compounds of the invention were incubated with 2.5 nM [3H]Rauwolscine for 60 min at 25° C. Non-specific binding was estimated in the presence of 10 μM Prazosin. Receptor proteins were filtered and washed, the filters were then counted to determine [3H]Rauwolscine specifically bound. Compounds were screened at 1 μM or lower, using 1% DMSO as vehicle. Compounds of the invention were tested in this biochemical assay and percent inhibition of specific binding was determined. Biochemical assay results are presented as the percent inhibition of specific binding in Table B1a.

[3] = Epimerization of chiral compounds in simulated gastric fluid (SGF); assay type: physicochemical; conditions: 24 h
Procedure: Epimerization Method for Studying Chiral Compounds in Simulated Gastric Fluid (SGF) and Stimulated Intestinal Fluid (SIF)
A measured quantity of sample was dissolved in SGF or SIF at the concentration of 1 mg/mL in a volumetric flask and appropriate number of aliquots of this solution were transferred to incubation vials as per the given time points. For the sample of zero hour, the appropriate volume of saturated Bicarbonate solution was added immediately to the sample, and was stirred for 5-10 mins. The compound was extracted in a suitable solvent (e.g. Ethyl acetate), decanting the organic layer. The organic solvent was evaporated, and the residue was dissolved in an appropriate solvent (Methanol/Ethanol), filtered through a 0.22 μm membrane filter and analyzed by chiral HPLC. The remaining aliquots were incubated at different temperatures i.e. 25° C. and 37° C. in a water bath as per the given time points. The respective samples were retrieved from the incubator/Water bath at different time intervals as per the given time points: 90 mins, 4 h, 6 h, 12 h and 24 h, and the same procedure for sample preparation was followed for the zero hour sample.
All the chromatograms were obtained at the specified wavelength, compiled and the curves between Time Vs % Area were plotted.

Row | Compound | inhibition at 0.1 µM [1] [%] | inhibition at 0.03 µM [2] [%] | epimerization ([3]; 25° C.) | epimerization ([3]; 37° C.) [%]
1 | Cc1ccc2c(c1)c1c(n2CC(OC(=O)N2CCCC2)c2ccncc2)CCN(C)C1 (single isomer, unassigned) [4b] | 28 | 86 |  | 
2 | Cc1ccc2c(c1)c1c(n2CC(O)c2ccncc2)CCN2CCCC12 (single isomer, unassigned) [Compound No. 178d] |  |  | up to 41.29% | 50.13
3 | Cc1cc(F)c2c(c1)c1c(n2CC(C)(O)c2cccnc2)CCN2CCCC12 (centres unmarked) [Compound No. 79a] |  |  | 2% | 21.39
4 | Cc1ccc2c(c1)c1c(n2CC(C)(O)c2ccc(F)nc2)CCN2CCCC12 (single isomer, unassigned) [6a] | 59 | 107 |  | 
